Measured values taken from patent US20210308173A1, “PHARMACEUTICAL COMPOSITION COMPRISING CYCLODEXTRIN COMPLEXES OF ANETHOLE TRITHIONE OR DERIVATIVES THEREOF” (priority 2018, published 2021).

Assay: Cyclodextrin-AOL solubility diagrams
Assay type: physicochemical
Description: A cyclodextrin-AOL solubility diagram would reveal the profile of the solubility curve of the AOL depending on the concentration of the cyclodextrin. The principle of this method is to add an excess of AOL to cyclodextrin solutions of increasing concentration, then to measure the amount of solubilized AOL. This method confirms the solubilization and evaluates more precisely the cyclodextrin solubilizing power, to define a stoichiometry of the complexes (molar and mass ratios) over the entire range of concentrations studied and to estimate the solubility limit and the stability of the mixtures.
The solubilization was carried out with HP-β-CD and SBE-β-CD in a range of concentration ranging from 2.5% to 40% (m/m) at 20° C., 25° C. and 30° C. To check the stability of the solution, a storage test at 4° C. for 48 hours was carried out with the solutions previously prepared at 20° C.
Aqueous solutions of cyclodextrin at in weight (m/m) concentrations of 2.5%, 5%, 10%, 20%, 30% and 40% were prepared in pure water. An excess of AOL was suspended in 2 mL each of these solutions. Each sample is shaken at 20° C., 25° C. or 30° C. for 4 hours (vortex at 1400 rpm). Each sample is centrifuged (12,500 g) and filtered through a 0.45 μm membrane.
The solubility of AOL in each test solution was quantified by HPLC as detailed in Example 2.

[1] = HP-β-CD 2.5% (w/w), 20° C. followed by 48 hours at 4° C.
[2] = HP-β-CD 5% (w/w), 20° C. followed by 48 hours at 4° C.
[3] = HP-β-CD 10% (w/w), 20° C. followed by 48 hours at 4° C.
[4] = HP-β-CD 20% (w/w), 20° C. followed by 48 hours at 4° C.
[5] = HP-β-CD 30% (w/w), 20° C. followed by 48 hours at 4° C.
[6] = HP-β-CD 40% (w/w), 20° C. followed by 48 hours at 4° C.
[7] = SBE-β-CD 2.5% (w/w), 20° C. followed by 48 hours at 4° C.
[8] = SBE-β-CD 5% (w/w), 20° C. followed by 48 hours at 4° C.
[9] = SBE-β-CD 10% (w/w), 20° C. followed by 48 hours at 4° C.

COc1ccc(-c2cc(=S)ss2)cc1 [AOL, 5-(4-methoxyphenyl)-3H-1,2-dithiole-3-thione]
CD/AOL molar ratio RM (HP-β-CD 2.5% (w/w), 20° C.): 200 | CD/AOL weight ratio Rm (HP-β-CD 2.5% (w/w), 20° C.): 1866 | CD/AOL molar ratio RM [1]: 231 | CD/AOL weight ratio Rm [1]: 2155 | CD/AOL molar ratio RM (HP-β-CD 2.5% (w/w), 25° C.): 137 | CD/AOL weight ratio Rm (HP-β-CD 2.5% (w/w), 25° C.): 1282 | CD/AOL molar ratio RM (HP-β-CD 2.5% (w/w), 30° C.): 103 | CD/AOL weight ratio Rm (HP-β-CD 2.5% (w/w), 30° C.): 958 | CD/AOL molar ratio RM (HP-β-CD 5% (w/w), 20° C.): 196 | CD/AOL weight ratio Rm (HP-β-CD 5% (w/w), 20° C.): 1832 | CD/AOL molar ratio RM [2]: 213 | CD/AOL weight ratio Rm [2]: 1992 | CD/AOL molar ratio RM (HP-β-CD 5% (w/w), 25° C.): 133 | CD/AOL weight ratio Rm (HP-β-CD 5% (w/w), 25° C.): 1247 | CD/AOL molar ratio RM (HP-β-CD 5% (w/w), 30° C.): 104 | CD/AOL weight ratio Rm (HP-β-CD 5% (w/w), 30° C.): 973 | CD/AOL molar ratio RM (HP-β-CD 10% (w/w), 20° C.): 175 | CD/AOL weight ratio Rm (HP-β-CD 10% (w/w), 20° C.): 1631 | CD/AOL molar ratio RM [3]: 203 | CD/AOL weight ratio Rm [3]: 1898 | CD/AOL molar ratio RM (HP-β-CD 10% (w/w), 25° C.): 128 | CD/AOL weight ratio Rm (HP-β-CD 10% (w/w), 25° C.): 1192 | CD/AOL molar ratio RM (HP-β-CD 10% (w/w), 30° C.): 94 | CD/AOL weight ratio Rm (HP-β-CD 10% (w/w), 30° C.): 874 | CD/AOL molar ratio RM (HP-β-CD 20% (w/w), 20° C.): 148 | CD/AOL weight ratio Rm (HP-β-CD 20% (w/w), 20° C.): 1381 | CD/AOL molar ratio RM [4]: 197 | CD/AOL weight ratio Rm [4]: 1840 | CD/AOL molar ratio RM (HP-β-CD 20% (w/w), 25° C.): 116 | CD/AOL weight ratio Rm (HP-β-CD 20% (w/w), 25° C.): 1086 | CD/AOL molar ratio RM (HP-β-CD 20% (w/w), 30° C.): 84 | CD/AOL weight ratio Rm (HP-β-CD 20% (w/w), 30° C.): 784 | CD/AOL molar ratio RM (HP-β-CD 30% (w/w), 20° C.): 132 | CD/AOL weight ratio Rm (HP-β-CD 30% (w/w), 20° C.): 1235 | CD/AOL molar ratio RM [5]: 172 | CD/AOL weight ratio Rm [5]: 1607 | CD/AOL molar ratio RM (HP-β-CD 30% (w/w), 25° C.): 112 | CD/AOL weight ratio Rm (HP-β-CD 30% (w/w), 25° C.): 1044 | CD/AOL molar ratio RM (HP-β-CD 30% (w/w), 30° C.): 70 | CD/AOL weight ratio Rm (HP-β-CD 30% (w/w), 30° C.): 655 | CD/AOL molar ratio RM (HP-β-CD 40% (w/w), 20° C.): 124 | CD/AOL weight ratio Rm (HP-β-CD 40% (w/w), 20° C.): 1162 | CD/AOL molar ratio RM [6]: 159 | CD/AOL weight ratio Rm [6]: 1481 | CD/AOL molar ratio RM (HP-β-CD 40% (w/w), 25° C.): 103 | CD/AOL weight ratio Rm (HP-β-CD 40% (w/w), 25° C.): 958 | CD/AOL molar ratio RM (HP-β-CD 40% (w/w), 30° C.): 66 | CD/AOL weight ratio Rm (HP-β-CD 40% (w/w), 30° C.): 621 | CD/AOL molar ratio RM (SBE-β-CD 2.5% (w/w), 20° C.): 91 | CD/AOL weight ratio Rm (SBE-β-CD 2.5% (w/w), 20° C.): 853 | CD/AOL molar ratio RM [7]: 158 | CD/AOL weight ratio Rm [7]: 1479 | CD/AOL molar ratio RM (SBE-β-CD 2.5% (w/w), 25° C.): 75 | CD/AOL weight ratio Rm (SBE-β-CD 2.5% (w/w), 25° C.): 698 | CD/AOL molar ratio RM (SBE-β-CD 2.5% (w/w), 30° C.): 60 | CD/AOL weight ratio Rm (SBE-β-CD 2.5% (w/w), 30° C.): 559 | CD/AOL molar ratio RM (SBE-β-CD 5% (w/w), 20° C.): 90 | CD/AOL weight ratio Rm (SBE-β-CD 5% (w/w), 20° C.): 838 | CD/AOL molar ratio RM [8]: 155 | CD/AOL weight ratio Rm [8]: 1445 | CD/AOL molar ratio RM (SBE-β-CD 5% (w/w), 25° C.): 71 | CD/AOL weight ratio Rm (SBE-β-CD 5% (w/w), 25° C.): 668 | CD/AOL molar ratio RM (SBE-β-CD 5% (w/w), 30° C.): 56 | CD/AOL weight ratio Rm (SBE-β-CD 5% (w/w), 30° C.): 520 | CD/AOL molar ratio RM (SBE-β-CD 10% (w/w), 20° C.): 85 | CD/AOL weight ratio Rm (SBE-β-CD 10% (w/w), 20° C.): 798 | CD/AOL molar ratio RM [9]: 151 | CD/AOL weight ratio Rm [9]: 1414 | CD/AOL molar ratio RM (SBE-β-CD 10% (w/w), 25° C.): 68 | CD/AOL weight ratio Rm (SBE-β-CD 10% (w/w), 25° C.): 639 | CD/AOL molar ratio RM (SBE-β-CD 10% (w/w), 30° C.): 54 | CD/AOL weight ratio Rm (SBE-β-CD 10% (w/w), 30° C.): 507 | CD/AOL molar ratio RM (SBE-β-CD 20% (w/w), 20° C.): 77
